Some test systems named below: DU-145; HCC 2998; HCT-15; IGROV-1; M14; MCF7; Malme-3M; NCI/ADR-RES; OVCAR-5; OVCAR-8; SF-268; SK-MEL-5; SK-OV-3; SN12C; SW-620; T47D; UACC-62; UO-31; NCI-H522.
Holding throughout (assay): inhibition of tumour cell growth, NCI panel, 48 h

SMILES strings stand for the structures.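 Tested at 5 concentrations; 48 h exposure; 96-well plates; endpoints linearly interpolated, else capped at highest concentration. GI50: concentration for 50% inhibition of growth.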 The source made the active and inactive calls. No stated cut-off is given here; in the data, active = GI50 up to about 1.1 µM and inactive = higher. A value given as a limit tells only on which side of the number the result lay.

Experimental findings from ChEMBL document CHEMBL1201862, “PubChem BioAssay data set” (2004) are described below.

For the compound `Cc1c2c(C#N)nccc2c(C)c2c1c1ccccc1n2Cc1ccccc1`, the GI50 in the experiment with DU-145 was > 100 µM (inactive); in the experiment on HCC 2998 it was > 100 µM (inactive); in the experiment on HCT-15, greater than 100 µM; in the experiment with IGROV-1, > 100 µM (inactive); with M14, > 100 µM (inactive); in the experiment on MCF7, 6.49 µM (inactive). The GI50 in the experiment on Malme-3M, in the experiment with NCI/ADR-RES, with OVCAR-5, with OVCAR-8, in the experiment with SF-268 and with SK-MEL-5 was > 100 µM (inactive) each time. Also, the GI50 is > 100 µM (inactive) in the experiment on SK-OV-3; > 100 µM (inactive) in the experiment with SN12C; > 100 µM (inactive) in the experiment with SW-620; 63.5 µM (inactive) in the experiment with T47D; > 100 µM (inactive) with UACC-62; > 100 µM (inactive) with UO-31.

Regarding `CCCCOC(=O)C1CN2C=CC=NC2=NC1(C(F)(F)F)C(F)(F)F` (stereo unspecified), the GI50 in the experiment with DU-145 is > 100 µM (inactive); with HCC 2998 it was > 100 µM (inactive); in the experiment on HCT-15, greater than 100 µM; in the experiment with IGROV-1, > 100 µM (inactive); in the experiment with M14 it was > 100 µM (inactive); with MCF7, > 100 µM (inactive). Moreover, the GI50 in the experiment on Malme-3M, with NCI/ADR-RES, in the experiment on OVCAR-5, in the experiment on OVCAR-8, in the experiment with SF-268 and in the experiment on SK-MEL-5 was > 100 µM (inactive) in each case. Besides, the GI50 with SK-OV-3, with SN12C, in the experiment with SW-620, in the experiment on T47D, in the experiment on UACC-62 and in the experiment on UO-31 was > 100 µM (inactive) throughout.

Turning to `CCCC(=O)n1[nH]c(=O)n(-c2ccc(Cl)cc2)c1=O`, the GI50 in the experiment with DU-145 is > 100 µM (inactive); in the experiment on HCC 2998, > 100 µM (inactive); in the experiment with HCT-15, greater than 100 µM; in the experiment with IGROV-1, > 100 µM (inactive); in the experiment on M14, > 100 µM (inactive); with MCF7, > 100 µM (inactive). The GI50 was 43.4 µM (inactive) in the experiment with Malme-3M; > 100 µM (inactive) in the experiment with NCI/ADR-RES; > 100 µM (inactive) with OVCAR-5; > 100 µM (inactive) with OVCAR-8; > 100 µM (inactive) in the experiment on SF-268; > 100 µM (inactive) with SK-MEL-5. Moreover, the GI50 in the experiment with SK-OV-3, in the experiment on SN12C, in the experiment with SW-620, in the experiment on T47D, in the experiment on UACC-62 and in the experiment with UO-31 was > 100 µM (inactive) throughout.

With `N#CCCN(CCC#N)c1ccc(C(=N/c2ccc(F)cc2)/N=N/c2ccccc2)cc1`, the GI50 in the experiment on DU-145 is > 100 µM (inactive); in the experiment with HCC 2998 it was > 100 µM (inactive); in the experiment on HCT-15, greater than 100 µM; with IGROV-1 it was > 100 µM (inactive); in the experiment on M14 it was > 100 µM (inactive); in the experiment with MCF7, > 100 µM (inactive). In addition, the GI50 in the experiment with NCI-H522 was 21.7 µM (inactive); with NCI/ADR-RES, > 100 µM (inactive); with OVCAR-5 it was > 100 µM (inactive); with OVCAR-8, > 100 µM (inactive); with SF-268 it was > 100 µM (inactive); with SK-MEL-5 it was 83.6 µM (inactive). For the same compound, the GI50 in the experiment with SK-OV-3 is > 100 µM (inactive); in the experiment on SN12C, > 100 µM (inactive); in the experiment with SW-620 it was > 100 µM (inactive); in the experiment on T47D, 15.1 µM (inactive); with UACC-62 it was > 100 µM (inactive); in the experiment on UO-31, > 100 µM (inactive).

For `O=C1c2ccccc2/C(=N\c2ccc3ccccc3c2)C1(C1=C(c2ccccc2)/C(=N/c2ccc3ccccc3c2)c2ccccc21)c1ccccc1` (stereo unspecified), the GI50 was 5.57 µM (inactive) in the experiment on DU-145; 11.5 µM (inactive) with HCC 2998; 2.55 µM with HCT-15; 6.34 µM (inactive) in the experiment with IGROV-1; 4.02 µM (inactive) in the experiment with M14; 4.05 µM (inactive) with MCF7. Further, the GI50 is 5.4 µM (inactive) in the experiment on NCI-H522; 6.01 µM (inactive) in the experiment with NCI/ADR-RES; > 57.8 µM (inactive) in the experiment with OVCAR-5; 6.89 µM (inactive) with OVCAR-8; 4.16 µM (inactive) in the experiment with SF-268; 2.17 µM (inactive) in the experiment with SK-MEL-5. The GI50 with SK-OV-3 was 22.1 µM (inactive); in the experiment with SN12C, 9.48 µM (inactive); with SW-620 it was 36.6 µM (inactive); with T47D it was 5.5 µM (inactive); in the experiment on UACC-62 it was 5.15 µM (inactive); with UO-31 it was 4.65 µM (inactive).

Take `Cc1nc2cc([N+](=O)[O-])ccc2c(NCCCN(C)C)c1C`: the GI50 was 21.7 µM (inactive) with DU-145; 14.7 µM with HCT-15; 3.22 µM (inactive) in the experiment on IGROV-1; 13.8 µM (inactive) in the experiment with M14; 2.94 µM (inactive) in the experiment on MCF7; 6.22 µM (inactive) with Malme-3M. Moreover, the GI50 with NCI-H522 is 3.61 µM (inactive); in the experiment with NCI/ADR-RES it was 16.3 µM (inactive); in the experiment on OVCAR-5, 13.2 µM (inactive); in the experiment with OVCAR-8, 11.5 µM (inactive); with SF-268, 20.3 µM (inactive); with SK-MEL-5, 10.1 µM (inactive). The GI50 with SK-OV-3 is 31.5 µM (inactive); in the experiment with SN12C, 11.4 µM (inactive); with SW-620, 5.3 µM (inactive); with T47D, 4.09 µM (inactive); in the experiment on UACC-62, 15.6 µM (inactive); in the experiment with UO-31, 14.7 µM (inactive).

On to `O=C1Nc2ccccc2/C1=N/NC(=O)C(O)(c1ccccc1)c1ccccc1`, for which the GI50 in the experiment with DU-145 is 25.1 µM (inactive); in the experiment on HCC 2998 it was 14.6 µM (inactive); in the experiment with HCT-15, 16.4 µM; in the experiment with IGROV-1, 19.6 µM (inactive); in the experiment with M14 it was 16.7 µM (inactive); in the experiment on MCF7, 22.4 µM (inactive). Moreover, the GI50 in the experiment on Malme-3M is 20.7 µM (inactive); in the experiment on NCI/ADR-RES, 23.9 µM (inactive); in the experiment on OVCAR-5 it was 17.2 µM (inactive); in the experiment with OVCAR-8 it was 24.7 µM (inactive); with SF-268, 27.1 µM (inactive); with SK-MEL-5 it was 16.2 µM (inactive). Further, the GI50 was 22.9 µM (inactive) in the experiment with SK-OV-3; 17.1 µM (inactive) in the experiment on SW-620; 23.8 µM (inactive) with T47D; 15.8 µM (inactive) in the experiment with UACC-62; 15.6 µM (inactive) in the experiment with UO-31.

On to `COC(=O)C1=C(OC(=O)c2ccccc2)C(C(=O)OC)[C@]2(O)[C@@H](C(=O)OC)[C@H]1C[C@@H](c1ccccc1)[C@@H]2C(=O)OC` (stereo partly specified), for which the GI50 in the experiment on DU-145 is 9.4 µM (inactive); in the experiment on HCC 2998, 7.21 µM (inactive); in the experiment on HCT-15, 7.82 µM; in the experiment with IGROV-1, 4.69 µM (inactive); in the experiment with M14 it was 1.95 µM (inactive); in the experiment on MCF7 it was 3.01 µM (inactive). The GI50 is 13.5 µM (inactive) in the experiment with Malme-3M; 2.62 µM (inactive) in the experiment with NCI/ADR-RES; 22.9 µM (inactive) in the experiment with OVCAR-5; 6.11 µM (inactive) in the experiment with OVCAR-8; 11.4 µM (inactive) in the experiment with SF-268; 4.85 µM (inactive) in the experiment on SK-MEL-5. For the same compound, the GI50 in the experiment on SK-OV-3 is 10.6 µM (inactive); in the experiment on SN12C, 8.43 µM (inactive); in the experiment with SW-620, 5.12 µM (inactive); in the experiment on T47D, 6.52 µM (inactive); in the experiment with UACC-62, 11.6 µM (inactive); with UO-31 it was 2.52 µM (inactive).

Regarding `Cc1ncc([N+](=O)[O-])n1CCNS(=O)(=O)CCCn1ncnc1[N+](=O)[O-]`, the GI50 is > 100 µM (inactive) in the experiment with DU-145; greater than 100 µM in the experiment with HCT-15; > 100 µM (inactive) in the experiment on IGROV-1; > 100 µM (inactive) in the experiment on M14; > 100 µM (inactive) in the experiment on MCF7; > 100 µM (inactive) in the experiment with Malme-3M. The GI50 with NCI-H522, in the experiment on NCI/ADR-RES, in the experiment on OVCAR-5, in the experiment with OVCAR-8, in the experiment with SF-268 and in the experiment on SK-MEL-5 was > 100 µM (inactive) throughout. In addition, the GI50 with SK-OV-3, in the experiment on SN12C, with SW-620, in the experiment on T47D, in the experiment with UACC-62 and with UO-31 was > 100 µM (inactive) in each case.

As for `O=C1C(Cl)=C(NCCN2CCOCC2)C(=O)c2c(O)ccc(O)c21`, the GI50 in the experiment with DU-145 was 1.71 µM (inactive); in the experiment on HCC 2998, 1.89 µM (inactive); in the experiment with HCT-15 it was 1.72 µM; in the experiment on IGROV-1 it was 1.88 µM (inactive); in the experiment on M14 it was 1.84 µM (inactive); in the experiment with MCF7, 1.42 µM (inactive). The GI50 was 1.84 µM (inactive) in the experiment with Malme-3M; 2.09 µM (inactive) in the experiment on NCI/ADR-RES; 1 µM (active) in the experiment with OVCAR-5; 3.25 µM (inactive) with OVCAR-8; 2.28 µM (inactive) in the experiment on SF-268; 1.09 µM (active) in the experiment with SK-MEL-5. Moreover, the GI50 with SK-OV-3 is 10 µM (inactive); in the experiment with SN12C, 1.79 µM (inactive); with SW-620 it was 1.33 µM (inactive); in the experiment on T47D, 1.99 µM (inactive); in the experiment with UACC-62, 1.48 µM (inactive); in the experiment with UO-31, 2.36 µM (inactive).

For the compound `COc1ccc(C2=C(N)c3ncccc3C2=O)cc1`, the GI50 in the experiment with DU-145 was > 100 µM (inactive); in the experiment on HCC 2998, > 100 µM (inactive); in the experiment with HCT-15, greater than 100 µM; with IGROV-1, > 100 µM (inactive); with M14 it was > 100 µM (inactive); in the experiment with MCF7 it was > 100 µM (inactive). Also, the GI50 is 43.9 µM (inactive) in the experiment with Malme-3M; > 100 µM (inactive) with NCI/ADR-RES; > 100 µM (inactive) in the experiment on OVCAR-5; > 100 µM (inactive) in the experiment with OVCAR-8; > 100 µM (inactive) with SF-268; > 100 µM (inactive) with SK-OV-3. Moreover, the GI50 in the experiment with SN12C was > 100 µM (inactive); with SW-620 it was > 100 µM (inactive); in the experiment with T47D, > 100 µM (inactive); in the experiment with UACC-62, 60.8 µM (inactive); with UO-31, > 100 µM (inactive).
